Source: PubChem BioAssay AID248 (DTP/NCI, 2004)
Values joined by “and” are separate entries in the source; they are usually repeats but may differ in a detail not shown here. Equal values may be shown once. Inconclusive results and toxic doses are left out.

Tested on: L1210 leukemia ip in BDF1 mice, survival T/C
Assay: NCI In Vivo Anticancer Drug Screen. Data for tumor model L1210 Leukemia (intraperitoneal) in B6D2F1 (BDF1) mice
Settings: endpoint: mean survival time, higher = longer survival
How it was run: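 Ratio derived from survival: compound-dosed mice over vehicle-dosed mice, all bearing a transplantable tumor.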

[1] = dose: 100.0 mg/kg/injection, schedule: Q04DX003 (ip), vehicle: Klucel (hydroxypropylcellulose) (HPC)
[2] = dose: 200.0 mg/kg/injection, schedule: Q04DX003 (ip), vehicle: Klucel (hydroxypropylcellulose) (HPC)
[3] = dose: 400.0 mg/kg/injection, schedule: Q04DX003 (ip), vehicle: Klucel (hydroxypropylcellulose) (HPC)
[4] = dose: 100.0 mg/kg/injection, schedule: Q01DX001 (ip), vehicle: saline
[5] = dose: 100.0 mg/kg/injection, schedule: Q04DX003 (ip), vehicle: saline
[6] = dose: 200.0 mg/kg/injection, schedule: Q01DX001 (ip), vehicle: saline
[7] = dose: 200.0 mg/kg/injection, schedule: Q04DX003 (ip), vehicle: saline
[8] = dose: 400.0 mg/kg/injection, schedule: Q01DX001 (ip), vehicle: saline
[9] = dose: 400.0 mg/kg/injection, schedule: Q04DX003 (ip), vehicle: saline
[10] = dose: 100.0 mg/kg/injection, schedule: Q04DX002 (ip), vehicle: Klucel (hydroxypropylcellulose) (HPC)
[11] = dose: 200.0 mg/kg/injection, schedule: Q04DX002 (ip), vehicle: Klucel (hydroxypropylcellulose) (HPC)
[12] = dose: 400.0 mg/kg/injection, schedule: Q04DX002 (ip), vehicle: Klucel (hydroxypropylcellulose) (HPC)
[13] = dose: 100.0 mg/kg/injection, schedule: Q01DX009 (ip), vehicle: Klucel (hydroxypropylcellulose) (HPC)
[14] = dose: 200.0 mg/kg/injection, schedule: Q01DX009 (ip), vehicle: Klucel (hydroxypropylcellulose) (HPC)
[15] = dose: 12.5 mg/kg/injection, schedule: Q01DX009 (ip), vehicle: saline with Tween-80
[16] = dose: 25.0 mg/kg/injection, schedule: Q01DX009 (ip), vehicle: saline with Tween-80
[17] = dose: 25.0 mg/kg/injection, schedule: Q04DX003 (ip), vehicle: saline with Tween-80
[18] = dose: 100.0 mg/kg/injection, schedule: Q04DX003 (ip), vehicle: saline with Tween-80
[19] = dose: 200.0 mg/kg/injection, schedule: Q04DX003 (ip), vehicle: saline with Tween-80
[20] = dose: 400.0 mg/kg/injection, schedule: Q04DX003 (ip), vehicle: saline with Tween-80
[21] = dose: 50.0 mg/kg/injection, schedule: Q01DX009 (ip), vehicle: saline with Tween-80
[22] = dose: 100.0 mg/kg/injection, schedule: Q01DX009 (ip), vehicle: saline with Tween-80

For `O=NN(CCCl)C(=O)NC1CCS(=O)(=O)C1` (stereo unspecified) (tested in a mixture with another compound), the T/C (dose: 6.0 mg/kg/injection, schedule: Q01DX001 (ip), vehicle: other) was 177 % of control, the T/C (dose: 9.0 mg/kg/injection, schedule: Q01DX001 (ip), vehicle: other) was 270 % of control and the T/C (dose: 13.0 mg/kg/injection, schedule: Q01DX001 (ip), vehicle: other) was 300 % of control. The T/C (dose: 20.0 mg/kg/injection, schedule: Q01DX001 (ip), vehicle: other) was 200 % of control, the T/C (dose: 30.0 mg/kg/injection, schedule: Q01DX001 (ip), vehicle: other) was 223 % of control and the T/C (dose: 44.0 mg/kg/injection, schedule: Q01DX001 (ip), vehicle: other) was 184 % of control. For the same compound, the T/C (dose: 67.0 mg/kg/injection, schedule: Q01DX001 (ip), vehicle: other) was 102 % of control.

For `CCCC(C(=O)OCC)C(=O)c1ccccc1` (stereo unspecified), the T/C [1] was 95 % of control, the T/C [2] was 98 % of control and the T/C [3] was 92 % of control.

For `c1cc(C2OCCO2)ccn1`, the T/C [4] was 101 % of control, the T/C [5] was 107 % of control and the T/C [6] was 100 % of control. For the same compound, the T/C [7] was 100 % of control, the T/C [8] was 100 % of control and the T/C [9] was 97 % of control.

In the case of `CNc1ccccc1C(=O)N/N=C/c1ccc(OC)cc1`, the T/C (dose: 100.0 mg/kg/injection, schedule: Q04DX002 (ip), vehicle: saline) is reported as 102 % of control, the T/C (dose: 200.0 mg/kg/injection, schedule: Q04DX002 (ip), vehicle: saline) is reported as 99 % of control and the T/C (dose: 400.0 mg/kg/injection, schedule: Q04DX002 (ip), vehicle: saline) is reported as 102 % of control.

With `CCCCCCCCCCCCCCCCCCNC(=O)Nc1ccc(OC)cc1OC` the T/C [10] was 101 % of control, the T/C [11] was 90 % of control and the T/C [12] was 90 % of control.

`CC(=O)c1cc(C)c(C)c(C)c1` was tested, and the T/C [4] was 96 % of control, the T/C [6] was 96 % of control and the T/C [8] was 91 % of control.

With `Oc1ccc(C2CCc3ccccc32)cc1` (stereo unspecified) the T/C [13] was 100 % of control, the T/C [1] was 95 % of control and the T/C [14] was 104 % of control. For the same compound, the T/C [2] was 100 % of control, the T/C (dose: 400.0 mg/kg/injection, schedule: Q01DX009 (ip), vehicle: Klucel (hydroxypropylcellulose) (HPC)) was 95 % of control and the T/C [3] was 93 % of control.

In the case of `CSC(=S)NNC(=O)c1cccc([N+](=O)[O-])c1`, the T/C (dose: 6.25 mg/kg/injection, schedule: Q04DX003 (ip), vehicle: saline sonified) is reported as 95 % of control, the T/C (dose: 12.5 mg/kg/injection, schedule: Q04DX003 (ip), vehicle: saline sonified) is reported as 100 % of control and the T/C (dose: 25.0 mg/kg/injection, schedule: Q04DX003 (ip), vehicle: saline sonified) is reported as 101 % of control.

With `Cc1cnc(/N=C(\N)N2CCOCC2)nc1-c1ccccc1O` the T/C [10] was 88 % of control and the T/C [11] was 88 % of control.

`Cc1ccc2[nH]c(=S)n(-c3ccccc3)c(=O)c2c1` was tested, and the T/C (dose: 100.0 mg/kg/injection, schedule: Q04DX002 (ip), vehicle: saline with Tween-80) was 91 % of control, the T/C (dose: 200.0 mg/kg/injection, schedule: Q04DX002 (ip), vehicle: saline with Tween-80) was 91 % of control and the T/C (dose: 400.0 mg/kg/injection, schedule: Q04DX002 (ip), vehicle: saline with Tween-80) was 91 % of control.

With `Cc1ccc(C)c(CNC(=O)Nc2ccccc2Cl)c1` the T/C [13] was 97 % of control and the T/C [14] was 101 % of control.

For `CCOC(=O)c1nc(N2CCOCC2)c2ccccc2n1`, the T/C [10] was 104 % of control, the T/C [11] was 101 % of control and the T/C [12] was 95 % of control.

In the case of `NC(=O)Cn1cnc2c(=S)nc[nH]c21`, the T/C (dose: 6.25 mg/kg/injection, schedule: Q01DX009 (ip), vehicle: saline with Tween-80) is reported as 109 % of control, the T/C [15] is reported as 104 % of control and the T/C (dose: 12.5 mg/kg/injection, schedule: Q04DX003 (ip), vehicle: saline with Tween-80) is reported as 104 % of control. For the same compound, the T/C [16] was 101 % of control and the T/C [17] was 102 % of control.

For `CCOC(=O)c1cnc(SC)nc1NCCO`, the T/C [1] was 97 % of control, the T/C [2] was 95 % of control and the T/C [3] was 97 % of control.

In the case of `C=C(C)C#CC(O)(C(=O)OCC)C1CCCC1` (stereo unspecified), the T/C (dose: 100.0 mg/kg/injection, schedule: Q01DX001 (ip), vehicle: other) is reported as 100 % of control, the T/C (dose: 200.0 mg/kg/injection, schedule: Q01DX001 (ip), vehicle: other) is reported as 93 % of control and the T/C (dose: 400.0 mg/kg/injection, schedule: Q01DX001 (ip), vehicle: other) is reported as 93 % of control.

With `CNC(=O)OC1CCCCC1CN(C)C` (stereo unspecified) the T/C (dose: 55.0 mg/kg/injection, schedule: Q01DX Z (ip), vehicle: saline) was 91 % of control, the T/C (dose: 83.0 mg/kg/injection, schedule: Q01DX Z (ip), vehicle: saline) was 109 % of control and the T/C (dose: 125.0 mg/kg/injection, schedule: Q01DX Z (ip), vehicle: saline) was 113 % of control.

`O=C(/C=C\c1ccccc1)/C=C/c1ccccc1` was tested, and the T/C [13] was 90 % of control, the T/C (dose: 100.0 mg/kg/injection, schedule: Q01DX009 (sc), vehicle: olive oil, sesame oil, peanut oil) was 113 % of control and the T/C [1] was 95 % of control. For the same compound, the T/C [14] was 95 % of control, the T/C (dose: 200.0 mg/kg/injection, schedule: Q01DX009 (sc), vehicle: olive oil, sesame oil, peanut oil) was 98 % of control and the T/C [2] was 98 % of control. The T/C (dose: 400.0 mg/kg/injection, schedule: Q01DX009 (sc), vehicle: olive oil, sesame oil, peanut oil) was 102 % of control and the T/C [3] was 98 % of control.

`COC(CC[P+](c1ccccc1)(c1ccccc1)c1ccccc1)(C(=O)c1ccccc1)c1ccccc1` (stereo unspecified) was tested, and the T/C (dose: 15.0 mg/kg/injection, schedule: Q01DX001 (ip), vehicle: carboxymethylcellulose (CMC)) was 96 % of control, the T/C (dose: 30.0 mg/kg/injection, schedule: Q01DX001 (ip), vehicle: carboxymethylcellulose (CMC)) was 90 % of control and the T/C (dose: 60.0 mg/kg/injection, schedule: Q01DX001 (ip), vehicle: carboxymethylcellulose (CMC)) was 89 % of control.

With `CCO/C=C1\SC(=S)N(Cc2ccccc2)C1=O` the T/C [18] was 94 % of control, the T/C [19] was 99 % of control and the T/C [20] was 102 % of control.

For `CCCCCCCCCCCCCCCCCCNC(=O)NCCc1ccccc1`, the T/C [10] was 105 % of control, the T/C [11] was 99 % of control and the T/C [12] was 92 % of control.

`COc1ccc(C(=O)C(Br)C(Br)C(=O)O)cc1` (stereo unspecified) was tested, and the T/C [15] was 93 % of control, the T/C [16] was 102 % of control and the T/C (dose: 25.0 mg/kg/injection, schedule: Q01DX009 (ip), vehicle: saline) was 102 % of control. The T/C [17] was 98 % of control and 103 % of control, the T/C [21] was 104 % of control and the T/C (dose: 50.0 mg/kg/injection, schedule: Q01DX009 (ip), vehicle: saline) was 100 % of control and 94 % of control. The T/C (dose: 50.0 mg/kg/injection, schedule: Q04DX003 (ip), vehicle: saline with Tween-80) was 100 % of control and 101 % of control and 103 % of control, the T/C (dose: 66.0 mg/kg/injection, schedule: Q04DX003 (ip), vehicle: saline) was 102 % of control and the T/C [22] was 86 % of control. The T/C (dose: 100.0 mg/kg/injection, schedule: Q01DX009 (ip), vehicle: saline) was 97 % of control and 89 % of control, the T/C [18] was 100 % of control and 104 % of control and 107 % of control and the T/C [5] was 106 % of control and 122 % of control and 92 % of control. For the same compound, the T/C (dose: 150.0 mg/kg/injection, schedule: Q04DX003 (ip), vehicle: saline) was 111 % of control and the T/C [7] was 108 % of control.

For `NC(=O)c1ccccc1OC(=O)Nc1cc([N+](=O)[O-])ccc1F`, the T/C (dose: 25.0 mg/kg/injection, schedule: Q01DX009 (ip), vehicle: Klucel (hydroxypropylcellulose) (HPC)) was 104 % of control, the T/C (dose: 50.0 mg/kg/injection, schedule: Q01DX009 (ip), vehicle: Klucel (hydroxypropylcellulose) (HPC)) was 107 % of control and the T/C [13] was 94 % of control and 92 % of control.

`Cc1ccc(-c2nn[nH]n2)cc1` was tested, and the T/C [5] was 97 % of control, the T/C [7] was 96 % of control and the T/C [9] was 96 % of control.

With `O=[N+]([O-])c1ccc2nc3c(nc2c1)-c1cccc2cccc-3c12` the T/C [16] was 89 % of control, the T/C [21] was 91 % of control and the T/C [22] was 94 % of control. For the same compound, the T/C [18] was 97 % of control, the T/C [19] was 97 % of control and the T/C [20] was 103 % of control.
